# Experiment: passive permeability, PAMPA, ADME assay (AID 1508612)
# Conditions: pH 7.4, 30.0 min, 50.0 µM
row,Papp [×10⁻⁶ cm/s],Structure (SMILES)
1,> 1000,CCN(CC)C(=O)c1coc(COc2ccc3c(c2)C(c2cccc(F)c2)N(C(=O)C(C)C)CC3)n1 (stereo unspecified)
2,229,Cc1cc(-c2nnc3n2CCCCC3)c(C)n1-c1cccc(C#N)c1
3,< 1,Nc1scc2c(C(=O)O)nn(-c3ccccc3)c(=O)c12
4,717,Cc1ccnc(NC(=S)N2CCN(c3ccc(N)cc3)CC2)c1
5,< 1,O=C(Nc1ccc(S(=O)(=O)Nc2nc(-c3ccccc3)cs2)cc1)c1ccc2ccccc2c1
6,222,Cc1ccc(CC(=O)Nc2nc(-c3ccc4c(c3)CCN4C(=O)c3ccccc3C)c(C)s2)cc1C
7,> 1000,Cc1cc(-c2nnc3n2CCCCC3)c(C)n1-c1cccc2ccccc12
8,56.4,O=C(O)CCNc1cc(N2CCc3ccccc3CC2)nc(-c2cccnc2)n1
9,54.3,Cc1ccc(S(=O)(=O)Nc2ccccc2C(=O)Nc2ccc(-c3ccccc3)nc2)cc1
10,455,Fc1ccc(F)c(Nc2nc(-c3ccncc3)nc3ccccc23)c1
11,11.7,NC(=O)c1cnc(N[C@@H]2CCCC[C@@H]2N)nc1Nc1cccc(-n2nccn2)c1
12,325,COc1cc(NS(=O)(=O)c2ccc(C)cc2)c(C(=O)Nc2nc(-c3ccccc3)cs2)cc1OC
13,449,Cc1noc(C)c1C(=O)N1CCC2(CCCN(Cc3ccccc3)C2)CC1
14,< 1,COc1cccc(CNc2ccc(S(=O)(=O)Nc3cccc4ccccc34)cc2)c1O
15,566,NC(=O)C1CCN(c2nc(-c3cccc(C(F)(F)F)c3)cs2)CC1
16,771,O=C(Nc1ccc2oc(-c3cccnc3)nc2c1)c1ccc(-c2ccccc2)o1
17,3.48,Cc1cnc(-c2ccccc2C2COC2)nc1NCC1CCN(c2cccnc2)CC1
18,693,COc1ccccc1-c1csc(N2CCC(C(N)=O)CC2)n1
19,> 1000,Nc1c(C(=O)N2CCCCC2)sc(=S)n1-c1ccccc1
20,2.4,Cc1ccc(S(=O)(=O)Nc2ccc(Br)cc2C(=O)Nc2nc(-c3ccccc3)cs2)cc1
21,< 1,Cc1ccc(-c2cc(C(=O)Nc3ccc(S(=O)(=O)N(C)Cc4nccs4)cc3)c3ccccc3n2)cc1C
22,< 1,COc1ccc(S(=O)(=O)N2CCOCC2)cc1NC(=O)c1cccc(-n2cccc2)c1
23,25,COc1cccc(N2CCN(c3ncc4c(n3)CCN(Cc3ccc(Br)cc3)C4)CC2)c1
24,157,c1cc(-c2cc(-c3ccncc3)c3cncn3c2)c2[nH]ccc2c1
25,> 1000,N#Cc1nc(-c2cccc3ccccc23)oc1NC1COC1
26,20.7,Cc1ccc(NC(=O)N(Cc2cn(C)c3ccccc23)C2CCCCC2)cc1C
27,> 1000,O=C(Nc1nc(-c2ccccc2)cs1)c1ccncc1NS(=O)(=O)c1ccc(F)c(F)c1

row,Papp [×10⁻⁶ cm/s],Structure (SMILES)
1,> 1000,CC(C)c1ccccc1-c1ncc(F)c(NCC2CCN(c3cnccn3)C2)n1 (stereo unspecified)
2,> 1000,CC(=O)C1CCN(c2ncc(-c3cccc(N(C)C)c3)s2)CC1
3,> 1000,CCc1ccc(OC(C)C(=O)N2CCC(c3nc4ccccc4o3)CC2)cc1 (stereo unspecified)
4,< 1,O=C(NCCc1cnc[nH]1)c1ccc(-c2ncc3cnc(-c4cccc(F)c4)cn23)cc1
5,512,CC[S+](=O)([O-])Nc1ccccc1C(=O)Nc1nc(-c2ccccc2)cs1
6,> 1000,C=CC(=O)Nc1cccc(Oc2nc(Nc3ccc(N4CCN(C)CC4)cc3)ncc2Cl)c1
7,> 1000,Cc1ccc(N2CCC(CNc3nc(-c4ccccc4C(C)C)ncc3F)CC2)cn1
8,10.2,Cc1noc(-c2cn(C3CCN(C(=O)c4ccc(OC(F)(F)F)cc4)CC3)nn2)n1
9,40.6,CC(=O)NCCNC(=O)c1ccc(-c2ncc3cnc(-c4cccc(F)c4)cn23)cc1
10,553,N=c1c2c(ccn1CCc1ccccc1)Oc1ccc3ccccc3c1C2c1ccccc1 (stereo unspecified)
11,< 1,Cc1ccc(NC2=C(c3ccc(C(F)(F)F)cc3)C(=O)c3ccccc32)cc1F
12,1.1,O=C(Nc1ccccc1)C1CC(=O)N(c2n[nH]c3cc(Br)ccc23)C1 (stereo unspecified)
13,33.8,CCc1cccc(CC)c1-n1c(C=C(C)C)c(C(=O)N2CCNCC2)cc(-c2nc(-c3ccc(C(F)(F)F)cc3)cs2)c1=O
14,197,O=C(Cc1ccc(O)cc1)N1CC(CNc2ccccc2)C2(C1)CN(c1ccccc1)C2 (stereo unspecified)
15,> 1000,O=C(NC1CCCc2c1cnn2-c1ccc(F)cc1F)c1ccccc1 (stereo unspecified)
16,95.6,NC(=O)C1CCN(c2ncc(-c3cccc(N4CCCC4)c3)s2)CC1
17,900,COc1ccc(CN2C(=O)[C@@H]3C[C@@H](CN3Cc3cccs3)Oc3ccccc32)cc1
18,297,CCOc1ccc(N2CC(c3nc(-c4ccccn4)no3)CC2=O)cc1 (stereo unspecified)
19,> 1000,CNc1ncc(-c2cccc3ccccc23)o1
20,726,O=C(C1CC(=O)N(c2n[nH]c3ccccc23)C1)N1CCC(c2noc3cc(F)ccc23)CC1 (stereo unspecified)
21,540,Cc1ccc(C(=O)Nc2nc(-c3ccccn3)cs2)cc1S(=O)(=O)N1CCOCC1
22,438,CC(=O)Nc1cc(-c2nc(Nc3ccc(F)c(F)c3)c3ccccc3n2)ccn1
23,394,COc1ccc(CCNC(=O)c2cc3c(=O)n4ccccc4nc3n(CCCN3CCOCC3)c2=N)cc1
24,206,O=C(c1nc(-c2cccnc2)c2ccccn12)N1CCOCC1
25,> 1000,O=C(c1cnn(-c2cccc(F)c2)c1-n1cccc1)N1CCN(c2ccccc2F)CC1
26,3,O=C(c1cnccn1)N1CCC2(CCCN(C(c3ccccc3)c3ccccc3)C2)CC1
27,> 1000,C[C@H]1CN(C(=O)Nc2ccc(F)cc2F)C[C@@H]1c1nc(-c2ccccc2)no1

# Second part, the compound before the results:
row,Structure (SMILES),Papp [×10⁻⁶ cm/s]
1,Clc1ccc(C2=Nn3c(nnc3-c3ccncc3)SC2)cc1,372
2,Fc1ccc(N2CCCN(CC3[C@H]4CNC[C@@H]34)CC2)cc1 (stereo partly specified),196
3,COc1ccc(C(=O)CCN(C)C)cc1F,410
4,COC(=O)c1ccc(O)c2ncc(N3CCN(C)CC3)cc12,845
5,COc1cccc(CNc2ccc(S(=O)(=O)Nc3ccc(C)nc3)cc2)c1O,973
6,CCc1cc(Cl)c(OC)c(C(=O)NC[C@@H]2CCCN2CC)c1O,> 1000
7,C=C1C(=O)OC2C1CCC(C)C1(O)C=CC(=O)C21C (stereo unspecified),64.6
8,Cc1ccc(S(=O)(=O)N[C@@H](Cc2ccccc2)C(=O)CCl)cc1,323
9,O=C(NC1CCCCC1)N1Cc2[nH]cnc2C[C@H]1c1nc(-c2cccc([N+](=O)[O-])c2)no1,202
10,Cn1c(=O)c2[nH]c(=O)[nH]c2n(C)c1=O,1.71
11,COc1ccc(NC(=O)c2ccc[nH]2)cc1S(=O)(=O)Nc1ccc(Br)cc1,> 1000
12,Brc1ccc(-c2csc(N3CCOCC3)n2)cc1,< 1
13,CCOC(=O)c1ccc(N2C(=O)c3n[nH]c(-c4ccco4)c3C2c2ccc(C)cc2)cc1 (stereo unspecified),6.34
14,CC1(C)CC(=O)C2=C(C1)NC(Nc1nc3ccccc3o1)=NC2c1ccccc1Cl (stereo unspecified),> 1000
15,COc1ccc(C)cc1Nc1c2c(nc3ccccc13)CCC2,> 1000
16,CCOc1ccc(CCNC(=O)c2cc3sccc3n2C(C)C)cc1OCC,897
17,Cc1ccc(S(=O)(=O)Nc2cnccc2C(=O)Nc2nc(-c3ccc(F)cc3)cs2)cc1,423
18,O=C(Nc1ccc([S+](=O)([O-])Nc2nccs2)cc1)c1ncn[nH]1,< 1
19,CCCCCn1c(=O)[nH]c2cc(C(=O)NCCCN3CCC(C)CC3)ccc2c1=O,91.7
20,COc1cccc(CNc2ccc(S(=O)(=O)Nc3ccc(C4CCNCC4)cc3)cc2)c1O,1.79
21,COc1cc2c(c(OC)c1OC)-c1ccc(OC)c(=O)cc1[C@@H](NC(C)=O)CC2,1.93
22,CC(=O)c1c(C)[nH]c(C(=O)Nc2cccc([S+](=O)([O-])N3CCC(F)(F)CC3)c2)c1C,> 1000
23,CCc1[nH]c2ccc(CNC(=O)Cc3cnc4c(C)cccn34)cc2c1C,405
24,C=Cc1ccc(Cn2c(C(=O)O)c(CNC3CCCCC3)c3ccc(OC)cc32)cc1,771
25,CC(=O)c1c(C)[nH]c(C(=O)Nc2cccc([S+](=O)([O-])Nc3cccnc3)c2)c1C,16.5
26,CCOC(=O)C1CCN(c2nc(-c3ccc(Br)cc3)cs2)CC1,120

row,Structure (SMILES),Papp [×10⁻⁶ cm/s]
1,CCCN(CCC)CCc1cccc2c1CC(=O)N2,179
2,CCOC(=O)c1nnc(N[S+](=O)([O-])c2ccc(NC(=O)Cc3ccc(Cl)c(Cl)c3)cc2)s1,1.1
3,Nc1c(-c2ccncc2)cc[nH]c1=O,3.1
4,Cc1ccc(S(=O)(=O)Nc2cnccc2C(=O)Nc2nc(-c3ccc4c(c3)CCCC4)cs2)cc1,45.2
5,COc1ccc(Cl)cc1NC(=O)c1sc2nc3c(cc2c1N)N1CCC3CC1,55
6,Cc1cc2c(-c3cccc(O)c3)nc(-c3c(C)noc3C)cc2[nH]1,> 1000
7,COC(=O)c1cc2occc2n1Cc1nc(-c2ccc(C)cc2)oc1C,40.3
8,CC(=O)c1c(C)[nH]c(C(=O)Nc2cccc([S+](=O)([O-])Nc3ccccn3)c2)c1C,11.6
9,Cc1ccc(-c2nc(C)c(C(=O)Nc3ccc4c(c3)C(=O)N3CCC[C@H]3C(=O)N4)s2)cc1,976
10,COc1ccc(Nc2nnc(-c3ccc(C)c(S(=O)(=O)NCc4nc5ccccc5[nH]4)c3)c3ccccc23)cc1,11.9
11,NC(=O)C1CCN(c2nccc(Cl)n2)CC1,37.3
12,C=CCc1ccc(O)c(-c2ccc(O)c(CC=C)c2)c1,> 1000
13,Cn1c(=O)c2c(nc(Cl)n2Cc2ccc(Cl)cc2)n(C)c1=O,> 1000
14,Cc1ccc(S(=O)(=O)Nc2ccc(C(=O)Nc3nc(-c4ccc(Cl)cc4)cs3)cc2)cc1,11
15,O=C(O)c1cn(C2CC2)c2cc(N3C[C@@H]4C[C@H]3CN4)c(F)cc2c1=O,< 1
16,CC(O)(C#Cc1ccc2c(c1)N(c1nc(N)ncc1Cl)CC2)c1nccs1 (stereo unspecified),516
17,NCC(=O)Nc1ccc(Cl)cc1C(=O)c1ccc[nH]1,> 1000
18,CC(C)c1ccc(S(=O)(=O)c2cnc(SCC(=O)Nc3ccc4c(c3)OCCO4)[nH]c2=O)cc1,1.84
19,O=c1cc(-c2ccc(O)c(O)c2)oc2cc(O)cc(O)c12,120
20,CCC(CC)c1cc([C@H]2CN3CC[C@H]2C[C@@H]3CNC(=O)Cc2cccs2)nc(-c2ccncc2)n1,448
21,COc1ccc(-n2nc(C3CCCN(CC4CCCCC4)C3)[nH]c2=O)cc1 (stereo unspecified),> 1000
22,NC(=O)C1CCN(c2nccc(-c3ccc4c(c3)OCCO4)n2)CC1,289
23,COc1cc2ncnc(Oc3cccc(NC(=O)Nc4cc(C(C)(C)C(F)(F)F)on4)c3)c2cc1OC,36.1
24,CN(C)C(=O)C1CCN(c2nc(-c3ccc(Br)cc3)cs2)CC1,583
25,COc1ccc(CNc2ccc(S(=O)(=O)Nc3nccs3)cc2)cc1O,19.3
26,O=C1CCCC2=C1C1(CCS(=O)(=O)C1)N=C(Nc1nc3ccccc3o1)N2 (stereo unspecified),176

# Reference: PubChem BioAssay AID1508612
